From ChEMBL document CHEMBL5223128, “Biphenyl-based small molecule inhibitors: Novel cancer immunotherapeutic agents targeting PD-1/PD-L1 interaction” (Bioorg Med Chem, 2022) come the findings set out here.

Broadly, the IC50 is the concentration at which inhibition is half-maximal. Read a low IC50 as greater potency. Broadly, the Kd is the equilibrium constant for the complex coming apart.

Experiment [1] addresses T1, Programmed cell death protein 1/Programmed cell death 1 ligand 1 (Homo sapiens, UniProt Q9NZQ7). Briefly: Inhibition of human PD-1/PDL1 protein-protein interaction by HTRF assay. The class given is protein-complex assay.
Experiment [2] deals with T1, Programmed cell death protein 1/Programmed cell death 1 ligand 1. In words: Inhibition of human PD-1/PDL1 protein-protein interaction by luminescence proximity homogeneous assay. The class given is protein-complex assay.
The target in experiment [3] is Programmed cell death 1 ligand 1 (Homo sapiens, UniProt Q9NZQ7). In words: Binding affinity to human PDL1 assessed as dissociation constant by MST method.
Experiment [4] addresses Programmed cell death protein 1 (Homo sapiens, UniProt Q15116). In words: Binding affinity to human PD-1 assessed as dissociation constant by SPR assay.

T1 sequence (Q15116 whole entry): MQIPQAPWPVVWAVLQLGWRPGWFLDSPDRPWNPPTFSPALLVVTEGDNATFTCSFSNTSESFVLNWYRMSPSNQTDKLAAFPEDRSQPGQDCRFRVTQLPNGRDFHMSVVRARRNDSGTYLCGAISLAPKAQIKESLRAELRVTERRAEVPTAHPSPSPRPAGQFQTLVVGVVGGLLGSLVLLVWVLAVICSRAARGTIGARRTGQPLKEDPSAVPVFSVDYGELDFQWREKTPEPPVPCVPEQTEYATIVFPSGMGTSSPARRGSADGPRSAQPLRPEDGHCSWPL
T1 sequence (Q9NZQ7 whole entry): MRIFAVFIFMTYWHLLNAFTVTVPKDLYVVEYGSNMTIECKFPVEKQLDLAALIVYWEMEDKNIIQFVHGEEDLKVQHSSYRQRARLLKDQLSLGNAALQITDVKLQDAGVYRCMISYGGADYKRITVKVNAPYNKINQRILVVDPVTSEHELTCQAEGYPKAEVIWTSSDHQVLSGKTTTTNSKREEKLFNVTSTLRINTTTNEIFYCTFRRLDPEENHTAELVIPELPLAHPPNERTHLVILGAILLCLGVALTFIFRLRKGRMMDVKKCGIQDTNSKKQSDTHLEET
Chain of Programmed cell death 1 ligand 1 (Q9NZQ7 whole entry): as above
Chain of Programmed cell death protein 1 (Q15116 whole entry): as the sequence (Q15116 whole entry) above

Take `Cc1c(COc2cc(OCc3ccc(OC(F)(F)F)cc3)c(N3CCCCC3C(=O)O)cc2Cl)cccc1-c1ccccc1` (centres undefined): the IC50 in experiment [1] came out at 56.6 nM; in experiment [2], 1500 nM. Turning to `Cc1c(-c2ccccc2)cccc1N1C(=O)c2cc(CN[C@H](C(=O)O)C(C)O)c(OCc3cccc(C#N)c3)cc2C1=O` (some centres undefined), in experiment [3], the Kd is 24.4 nM.

As for `O=C(O)[C@@H](CO)NCc1cc(Cl)c(OCc2cccc(-c3ccccc3)c2Br)cc1OCc1ccc2nonc2c1`, the Kd in experiment [4] was 3.34 nM.
